Test results as given in PubChem BioAssay AID1845196 (Molecular Pharmacology Branch, DTP, NCI, 2023).

System: 292921-168-R tumor spheroid viability
Test: Anticancer human tumor 292921-168-R patient-derived pancreatic carcinoma cell line growth inhibition
Conditions: spheroids with HUVEC and MSC; for IC50: curve of first compound; for viability, T/C: stronger effect = lower value
Method in brief: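 Complex tumor spheroids combined malignant cells with endothelial cells and mesenchymal stem cells. DNA-damaging drugs and DNA repair inhibitors were tested alone and in combination, at half-log dilutions down from clinical Cmax (top 10 microM if Cmax unknown), 0.25% DMSO final.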

[1] = second compound 0.003 µM, first compound 0.0316 µM
[2] = second compound 0.003 µM, first compound 0.1 µM
[3] = second compound 0.003 µM, first compound 0.316 µM
[4] = second compound 0.003 µM, first compound 1 µM
[5] = second compound 0.003 µM, first compound 3.16 µM
[6] = second compound 0.003 µM, first compound 10 µM
[7] = second compound 0.00949 µM, first compound 0.0316 µM
[8] = second compound 0.00949 µM, first compound 0.1 µM
[9] = second compound 0.00949 µM, first compound 0.316 µM
[10] = second compound 0.00949 µM, first compound 1 µM
[11] = second compound 0.00949 µM, first compound 3.16 µM
[12] = second compound 0.00949 µM, first compound 10 µM
[13] = second compound 0.03 µM, first compound 0.0316 µM
[14] = second compound 0.03 µM, first compound 0.1 µM
[15] = second compound 0.03 µM, first compound 0.316 µM
[16] = second compound 0.03 µM, first compound 1 µM
[17] = second compound 0.03 µM, first compound 3.16 µM
[18] = second compound 0.03 µM, first compound 10 µM
[19] = second compound 0.0949 µM, first compound 0.0316 µM
[20] = second compound 0.0949 µM, first compound 0.1 µM
[21] = second compound 0.0949 µM, first compound 0.316 µM
[22] = second compound 0.0949 µM, first compound 1 µM
[23] = second compound 0.0949 µM, first compound 3.16 µM
[24] = second compound 0.0949 µM, first compound 10 µM
[25] = second compound 0.3 µM, first compound 0.0316 µM
[26] = second compound 0.3 µM, first compound 0.1 µM
[27] = second compound 0.3 µM, first compound 0.316 µM
[28] = second compound 0.3 µM, first compound 1 µM
[29] = second compound 0.3 µM, first compound 3.16 µM
[30] = second compound 0.3 µM, first compound 10 µM
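Note: spheroids exposed to compounds for 7 days.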

Row | Compound | IC50 (second compound 0.003 µM) | IC50 (second compound 0.00949 µM) | IC50 (second compound 0.03 µM) | IC50 (second compound 0.0949 µM) | IC50 (second compound 0.3 µM) | viability, T/C [1] | viability, T/C [2] | viability, T/C [3] | viability, T/C [4] | viability, T/C [5] | viability, T/C [6] | viability, T/C [7] | viability, T/C [8] | viability, T/C [9] | viability, T/C [10] | viability, T/C [11] | viability, T/C [12] | viability, T/C [13] | viability, T/C [14] | viability, T/C [15] | other results
1 | CC(C)n1c(=O)n(C)c2cnc3cc(F)c(-c4ccc(OCCCN5CCCCC5)nc4)cc3c21 + CC[C@@]1(O)C(=O)OCc2c1cc1n(c2=O)Cc2cc3c(CN(C)C)c(O)ccc3nc2-1 | < 31.6 nM | < 31.6 nM | < 31.6 nM | < 31.6 nM | < 31.6 nM | 45.7% | 42.4% | 44.9% | 42.3% | 41.4% | 20.4% | 25.4% | 23.7% | 22.3% | 25.2% | 24.4% | 18.7% | 20.2% | 22.4% | 20.4% | viability, T/C [16]: 20.4%; viability, T/C [17]: 23.2%; viability, T/C [18]: 16.7%; viability, T/C [19]: 13.2%; viability, T/C [20]: 14.7%; viability, T/C [21]: 13.7%; viability, T/C [22]: 14.8%; viability, T/C [23]: 16.8%; viability, T/C [24]: 14.8%; viability, T/C [25]: 4.72%; viability, T/C [26]: 4.71%; viability, T/C [27]: 5.4%; viability, T/C [28]: 6.25%; viability, T/C [29]: 8.92%; viability, T/C [30]: 10.4%
2 | CC1COCCN1c1cc(-c2ccnn2C)c2ccnc(-c3ccn[nH]3)c2n1 (stereo not given) + CC[C@@]1(O)C(=O)OCc2c1cc1n(c2=O)Cc2cc3c(CN(C)C)c(O)ccc3nc2-1 | < 31.6 nM | < 31.6 nM | < 31.6 nM | < 31.6 nM | < 31.6 nM | 22.8% | 13.6% | 10% | 12.2% | 14.4% | 15.4% | 11.6% | 9.97% | 10% | 11.8% | 13.8% | 15% | 8.44% | 7.98% | 9.15% | viability, T/C [16]: 10.8%; viability, T/C [17]: 12.5%; viability, T/C [18]: 14.3%; viability, T/C [19]: 4.99%; viability, T/C [20]: 4.72%; viability, T/C [21]: 5.08%; viability, T/C [22]: 8.1%; viability, T/C [23]: 10.9%; viability, T/C [24]: 12.6%; viability, T/C [25]: 2.78%; viability, T/C [26]: 2.83%; viability, T/C [27]: 3.27%; viability, T/C [28]: 4.98%; viability, T/C [29]: 6.98%; viability, T/C [30]: 9.23%
3 | COc1cc(C)[nH]c(=O)c1CN1CCc2c(Cl)cc(C(OC)C3COC3)c(Cl)c2C1=O (stereo not given) + CC[C@@]1(O)C(=O)OCc2c1cc1n(c2=O)Cc2cc3c(CN(C)C)c(O)ccc3nc2-1 | > 10000 nM | > 10000 nM | 394 nM | < 31.6 nM | < 31.6 nM | 108% | 102% | 85% | 90.7% | 88.7% | 82.8% | 92.6% | 94.1% | 71.3% | 71.5% | 81.3% | 63.3% | 50.6% | 59.1% | 53.4% | viability, T/C [16]: 39.2%; viability, T/C [17]: 40.2%; viability, T/C [18]: 19.8%; viability, T/C [19]: 13.1%; viability, T/C [20]: 15.6%; viability, T/C [21]: 12.9%; viability, T/C [22]: 9.42%; viability, T/C [23]: 10.1%; viability, T/C [24]: 7.35%; viability, T/C [25]: 4.43%; viability, T/C [26]: 4.26%; viability, T/C [27]: 3.82%; viability, T/C [28]: 2.93%; viability, T/C [29]: 3.15%; viability, T/C [30]: 3.34%
4 | COc1ccc([C@@H](O)c2cc(-c3ncnc4cc(N5CCOCC5)ccc34)c(F)cc2Cl)nn1 + CC[C@@]1(O)C(=O)OCc2c1cc1n(c2=O)Cc2cc3c(CN(C)C)c(O)ccc3nc2-1 | 1350 nM | 974 nM | < 31.6 nM | < 31.6 nM | < 31.6 nM | 102% | 94.4% | 77.8% | 55.3% | 34.8% | 20.8% | 77.5% | 74.5% | 71.9% | 45.6% | 32.9% | 17.9% | 41.8% | 38.7% | 34.5% | viability, T/C [16]: 25.8%; viability, T/C [17]: 21.5%; viability, T/C [18]: 17.1%; viability, T/C [19]: 10.8%; viability, T/C [20]: 12%; viability, T/C [21]: 12.5%; viability, T/C [22]: 13.2%; viability, T/C [23]: 14.5%; viability, T/C [24]: 13.8%; viability, T/C [25]: 3.98%; viability, T/C [26]: 3.78%; viability, T/C [27]: 4.06%; viability, T/C [28]: 4.72%; viability, T/C [29]: 6.62%; viability, T/C [30]: 8.28%
